Consider 26 compounds from patent publication US20190105367A1, “ANTIMICROBIAL 4-OXOQUINOLIZINES” (Emergent Product Development Gaithersburg Inc., priority 2011, published 2019).

Values after ≈ are worked out from the molar mass of the structure shown. Where two headings read alike, the source gives them in different places. Bounds are passed on as bounds.

One assay relates to B. thailandensis. In kind it is cell-based, Burkholderia thailandensis.
The test system of the next assay is K. pneumoniae ATCC 33495. Briefly: MIC on K. pneumoniae (Example 5). To be noted: Klebsiella pneumoniae, ATCC33495; sensitive strain; read-out: MICs K. pneumoniae ATCC 33495. The class given is cell-based, Klebsiella pneumoniae. The procedure:
MIC Values for all compounds were measured against a selection of bacterial strains. The MICs of 4-oxoquinolizines against a selection of Gram-negative and Gram-positive bacterial strains are shown in Table 13 in comparison with known antibiotics.

A further assay relates to A. baumannii ATCC 19606. Put plainly: MIC, selected panel of bacterial strains (Example 5). In kind it is cell-based, Acinetobacter baumannii.
Assay [1] concerns S. aureus BAA-1556 (USA300-Type) (MRSA, FQ-R). The description is as above. The class given is cell-based, Staphylococcus aureus. The conditions noted are these: Staphylococcus aureus, read-out: MICs against Gram positive bacteria S. aureus BAA-1556 (USA300-Type) (MRSA, FQ-R).
Assay [2] has as its system S. aureus ATCC 43300 (MRSA, FQ-S). The assay is described as above. In kind it is cell-based, Staphylococcus aureus. To be noted: Staphylococcus aureus, read-out: MICs against Gram positive bacteria S. aureus ATCC 43300 (MRSA, FQ-S).
A further assay relates to S. aureus ATCC 25923. The description is as above. In kind it is cell-based, Staphylococcus aureus.
The test system of a further assay is E. coli ATCC 25922. The assay is described as above. In kind it is cell-based, Escherichia coli. To be noted: Escherichia coli, ATCC25922, read-out: MICs against Gram negative bacteria E. coli ATCC 25922.
A further assay deals with B. thailandensis E264. Briefly: microbe, parasite or virus in culture. In kind it is cell-based, Burkholderia thailandensis. To be noted: Burkholderia thailandensis, E264, read-out: MICs against Gram negative bacteria B. thailandensis E264.
The mark [3] stands for this setting: Acinetobacter baumannii, ATCC19606, read-out: MICs against Gram negative bacteria A. baumannii ATCC 19606.
Where [4] appears, read: Staphylococcus aureus, ATCC25923, read-out: MICs against Gram positive bacteria S. aureus ATCC 25923.

As to “8-(4-amino-3-ethyl-5-methyl- phenyl)-1-cyclopropyl-9- methyl-4-oxo-quinolizine-3- carboxylic acid [Compound 16]”, the “MIC90 B. thailandensis” value in the assay with B. thailandensis was under 0.048 µg/mL.
As for `Cc1c(-c2cc(F)c(N)cc2F)ccn2c(=O)c(C(=O)[O-])cc(C3CC3)c12.[K+]` [Compound 2K salt, potassium 8-(4-amino-2,5-difluoro-phenyl)-1-cyclopropyl-9-methyl-4-oxo-4H-quinolizine-3-carboxylate], in the assay with K. pneumoniae ATCC 33495, the MIC was determined as 0.25 µg/mL.
`Cc1c(-c2ccc(CN)s2)ccn2c(=O)c(C(=O)[O-])cc(C3CC3)c12.[K+]` [Compound 13K salt, potassium 8-(5-(aminomethyl)thiophen-2-yl)-1-cyclopropyl-9-methyl-4-oxo-4H-quinolizine-3-carboxylate]: in the assay on A. baumannii ATCC 19606 (setting [3]), the MIC is 0.125 µg/mL.
`Cc1c(-c2cccc(O)c2)ccn2c(=O)c(C(=O)[O-])cc(C3CC3)c12.[K+]` [Compound 56K salt, potassium 1-cyclopropyl-8-(3-hydroxyphenyl)-9-methyl-4-oxo-4H-quinolizine-3-carboxylate]: the MIC (with A. baumannii ATCC 19606 (setting [3]); in assay [1]) was 0.125 µg/mL in each case.
With `Cc1c(-c2ccc(O)cc2)c(F)cn2c(=O)c(C(=O)[O-])cc(C3CC3)c12.[K+]` [Compound 61K salt, potassium 8-(4-hydroxyphenyl)-1-cyclopropyl-7-fluoro-9-methyl-4-oxo-4H-quinolizine-3-carboxylate], the MIC was under 0.004 µg/mL in assay [2], 50 µg/mL in the assay with S. aureus ATCC 25923 (setting [4]) and 0.125 µg/mL in the assay on A. baumannii ATCC 19606 (setting [3]).
Take `CC(=O)NCc1ccc(-c2ccn3c(=O)c(C(=O)[O-])cc(C4CC4)c3c2C)cc1.[K+]` [Compound 64K salt, potassium 8-(4-(Acetamidomethyl)phenyl)-1-cyclopropyl-9-methyl-4-oxo-4H-quinolizine-3-carboxylate]: in the assay with E. coli ATCC 25922, the MIC is 0.125 µg/mL.
The same measure, in the same setting: the same measure for `COc1cc(-c2ccn3c(=O)c(C(=O)[O-])cc(C4CC4)c3c2C)ccc1O.[K+]` [Compound 66K salt, potassium 8-(4-hydroxy-3-methoxyphenyl)-1-cyclopropyl-9-methyl-4-oxo-4H-quinolizine-3-carboxylate]: 0.125 µg/mL.
In the case of `Cc1c(-c2ccc3c(c2)C(=O)NC3)ccn2c(=O)c(C(=O)[O-])cc(C3CC3)c12.[K+]` [Compound 68K salt, potassium 8-(3-oxoisoindolin-5-yl)-1-cyclopropyl-9-methyl-4-oxo-4H-quinolizine-3-carboxylate], the MIC (in assay [2]; in the assay with S. aureus ATCC 25923 (setting [4])) was 50 µg/mL throughout.
On to `CNc1ccc(-c2ccn3c(=O)c(C(=O)[O-])cc(C4CC4)c3c2C)cc1C.[K+]` [Compound 69K salt, potassium 8-(3-methyl-4-(methylamino)phenyl)-1-cyclopropyl-9-methyl-4-oxo-4H-quinolizine-3-carboxylate], for which the figures for the MIC (in assay [2]; in the assay on S. aureus ATCC 25923 (setting [4]); with E. coli ATCC 25922) were 50 µg/mL, 50 µg/mL and 0.125 µg/mL, respectively.
With `Cc1c(-c2ccc(O)c(F)c2)ccn2c(=O)c(C(=O)[O-])cc(C3CC3)c12.[K+]` [Compound 70K salt, potassium 8-(3-fluoro-4-hydroxyphenyl)-1-cyclopropyl-9-methyl-4-oxo-4H-quinolizine-3-carboxylate], the MIC in assay [2] stood at 50 µg/mL; with S. aureus ATCC 25923 (setting [4]), 50 µg/mL; in the assay with A. baumannii ATCC 19606 (setting [3]), 0.125 µg/mL.
`Cc1c(-c2ccc3[nH]nc(C4CC4)c3c2)ccn2c(=O)c(C(=O)[O-])cc(C3CC3)c12.[K+]` [Compound 71K salt, potassium 8-(3-cyclopropyl-1H-indazol-5-yl)-1-cyclopropyl-9-methyl-4-oxo-4H-quinolizine-3-carboxylate]: the MIC was found to be 50 µg/mL in assay [2], 50 µg/mL in the assay with S. aureus ATCC 25923 (setting [4]), 0.125 µg/mL in assay [1] and 0.125 µg/mL in the assay on E. coli ATCC 25922.
Consider `Cc1c(-c2ccc3sc(N)nc3c2)ccn2c(=O)c(C(=O)[O-])cc(C3CC3)c12.[K+]` [Compound 73K salt, potassium 8-(2-aminobenzo[d]thiazol-5-yl)-1-cyclopropyl-9-methyl-4-oxo-4H-quinolizine-3-carboxylate], for which the MIC in assay [2] was determined as 50 µg/mL; in the assay on S. aureus ATCC 25923 (setting [4]), 50 µg/mL; with A. baumannii ATCC 19606 (setting [3]) it was 0.125 µg/mL.
As for `Cc1c(-c2ccc3[nH]ncc3c2)c(F)cn2c(=O)c(C(=O)[O-])cc(C3CC3)c12.[K+]` [Compound 75K salt, potassium 8-(1H-indazol-5-yl)-1-cyclopropyl-7-fluoro-9-methyl-4-oxo-4H-quinolizine-3-carboxylate], the MIC (in assay [2]; in the assay on S. aureus ATCC 25923 (setting [4])) was 50 µg/mL in each case.
As for `Cc1c(-c2ccc3c(c2)CCN3)ccn2c(=O)c(C(=O)[O-])cc(C3CC3)c12.[K+]` [Compound 77K salt, potassium 8-(indolin-5-yl)-1-cyclopropyl-9-methyl-4-oxo-4H-quinolizine-3-carboxylate], the MIC with E. coli ATCC 25922 is 0.125 µg/mL.
For the compound `CNc1ccc(-c2ccn3c(=O)c(C(=O)[O-])cc(C4CC4)c3c2C)cn1.[K+]` [Compound 78K salt, potassium 8-(6-(methylamino)pyridin-3-yl)-1-cyclopropyl-9-methyl-4-oxo-4H-quinolizine-3-carboxylate], the MIC (in the assay with A. baumannii ATCC 19606 (setting [3]); in assay [1]) was 0.125 µg/mL each time.
As for `Cc1cc(-c2ccn3c(=O)c(C(=O)[O-])cc(C4CC4)c3c2C)cnc1N.[K+]` [Compound 79K salt, potassium 8-(6-amino-5-methylpyridin-3-yl)-1-cyclopropyl-9-methyl-4-oxo-4H-quinolizine-3-carboxylate], the results for the MIC (in assay [2]; with S. aureus ATCC 25923 (setting [4]); in assay [1]) were 50 µg/mL, 50 µg/mL and 0.125 µg/mL, respectively.
`Cc1n[nH]c2ccc(-c3ccn4c(=O)c(C(=O)[O-])cc(C5CC5)c4c3C)cc12.[K+]` [Compound 80K salt, potassium 8-(3-methyl-1H-indazol-5-yl)-1-cyclopropyl-9-methyl-4-oxo-4H-quinolizine-3-carboxylate]: the MIC in assay [2] was determined as 50 µg/mL; in the assay on S. aureus ATCC 25923 (setting [4]) it was 50 µg/mL; in assay [1], 0.125 µg/mL.
Take `Cc1c(-c2ccc3c(cnn3C)c2)ccn2c(=O)c(C(=O)[O-])cc(C3CC3)c12.[K+]` [Compound 81K salt, potassium 8-(1-methyl-1H-indazol-5-yl)-1-cyclopropyl-9-methyl-4-oxo-4H-quinolizine-3-carboxylate]: the MIC in assay [2] stood at 50 µg/mL; with S. aureus ATCC 25923 (setting [4]) it was 50 µg/mL; in the assay on A. baumannii ATCC 19606 (setting [3]), 0.125 µg/mL.
On to `Cc1c(-c2ccc3cn[nH]c3c2)ccn2c(=O)c(C(=O)[O-])cc(C3CC3)c12.[K+]` [Compound 83K salt, potassium 8-(1H-indazol-6-yl)-1-cyclopropyl-9-methyl-4-oxo-4H-quinolizine-3-carboxylate], for which the MIC in assay [2] was 50 µg/mL; in the assay with S. aureus ATCC 25923 (setting [4]), 50 µg/mL; in the assay with B. thailandensis E264 it was 0.125 µg/mL.
Turning to `Cc1c(-c2ccc(N3CCNCC3)nc2)ccn2c(=O)c(C(=O)[O-])cc(C3CC3)c12.[K+]` [Compound 84K salt, potassium 8-(6-(piperazin-1-yl)pyridin-3-yl)-1-cyclopropyl-9-methyl-4-oxo-4H-quinolizine-3-carboxylate], the MIC (in assay [2]; in the assay with S. aureus ATCC 25923 (setting [4])) was 0.125 µg/mL each time.
Take `Cc1c(-c2cnc3[nH]ccc3c2)ccn2c(=O)c(C(=O)[O-])cc(C3CC3)c12.[K+]` [Compound 85K salt, potassium 8-(1H-pyrrolo[2,3-b]pyridin-5-yl)-1-cyclopropyl-9-methyl-4-oxo-4H-quinolizine-3-carboxylate]: the MIC (in assay [2]; in the assay on S. aureus ATCC 25923 (setting [4])) was 50 µg/mL each time.
For `Cc1cn2c(=O)c(C(=O)[O-])cc(C3CC3)c2c(C)c1-c1ccc(N)nc1.[K+]` [Compound 87K salt, potassium 8-(6-amino-pyridin-3-yl)-1-cyclopropyl-7,9-dimethyl-4-oxo-4H-quinolizine-3-carboxylate], in the assay on E. coli ATCC 25922, the MIC was 0.125 µg/mL.
The same measure, in the same setting: the same measure for `Cc1cn2c(=O)c(C(=O)[O-])cc(C3CC3)c2c(C)c1-c1ccc2[nH]ncc2c1.[K+]` [Compound 88K salt, potassium 8-(1H-indazol-5-yl)-1-cyclopropyl-7,9-dimethyl-4-oxo-4H-quinolizine-3-carboxylate]: 0.125 µg/mL; for `COc1c(-c2ccc(N)nc2)ccn2c(=O)c(C(=O)[O-])cc(C3CC3)c12.[K+]` [Compound 89K salt, potassium 8-(6-amino-pyridin-3-yl)-1-cyclopropyl-9-methoxy-4-oxo-4H-quinolizine-3-carboxylate]: 0.125 µg/mL.
Same read-out and setting: the same measure for `COc1c(-c2ccc3[nH]ncc3c2)ccn2c(=O)c(C(=O)[O-])cc(C3CC3)c12.[K+]` [Compound 90K salt, potassium 8-(1H-indazol-5-yl)-1-cyclopropyl-9-methoxy-4-oxo-4H-quinolizine-3-carboxylate]: 0.125 µg/mL.
With `C[C@H]1c2cccc(O)c2C(=O)C2=C(O)[C@]3(O)C(=O)C(C(N)=O)=C(O)[C@@H](N(C)C)[C@@H]3[C@@H](O)[C@@H]21` [Doxycycline, reference compound], the MIC with S. aureus ATCC 25923 (Staphylococcus aureus, ATCC25923; read-out: MICs against Gram positive bacteria S. aureus ATCC 25923) stood at 0.125 µg/mL (≈ 0.281 µM); with A. baumannii ATCC 19606 (Acinetobacter baumannii, ATCC19606; read-out: MICs against Gram negative bacteria A. baumannii ATCC 19606), 0.125 µg/mL (≈ 0.281 µM).
